In ChEMBL document CHEMBL5344403, “Discovery and evaluation of phenacrylanilide derivatives as novel potential anti-liver fibrosis agents” (Eur J Med Chem, 2022):
The source made the active and inactive calls. The calls are words filed in the database; no cut-off is given here.

Columns and labels:
[1] = tested on: LX-2; experiment: Antifibrotic activity against TGF-beta1 induced human LX2 cells assessed as reduction of alpha-SMA expression at 20 uM pretreated with TGF-beta1 for 1 hr followed by compound addition and measured after 24 hrs by Western blot analysis; assay type: functional, cell-based
[2] = Antiproliferative activity against human LO2 cells assessed as inhibition of cell growth incubated for 72 hrs by CCK-8 assay; assay type: toxicity, cell-based; settings: LO2 (L02) cells
[3] = tested on: LX-2; experiment: Inhibition of TGF-beta1-induced human LX2 activation at 20 uM pretreated with TGF-beta1 for 1 hr followed by compound addition and measured after 72 hrs by CCK-8 assay relative to control; assay type: functional
[4] = tested on: LX-2; experiment: Antifibrotic activity against TGF-beta1 induced human LX2 cells assessed as reduction of fibronectin expression at 20 uM pretreated with TGF-beta1 for 1 hr followed by compound addition and measured after 24 hrs by Western blot analysis; assay type: functional, cell-based
[5] = Antiproliferative activity against human LX2 cells assessed as cell survival rate at 20 uM incubated for 72 hrs by CCK-8 assay; assay type: toxicity, cell-based; settings: LX-2 cells, read-out: Activity
[6] = tested on: LX-2; experiment: Downregulation of alpha-SMA mRNA expression in TGF-beta1-induced human LX2 cells at 20 uM pretreated with TGF-beta1 for 1 hr followed by compound addition and measured after 24 hrs by qRT-PCR analysis; assay type: functional, cell-based
[7] = tested on: LX-2; experiment: Downregulation of fibronectin mRNA expression in TGF-beta1-induced human LX2 cells at 20 uM pretreated with TGF-beta1 for 1 hr followed by compound addition and measured after 24 hrs by qRT-PCR analysis; assay type: functional, cell-based
[8] = tested on: LX-2; experiment: Effect on fibronectin protein level in TGF-beta1-induced human LX2 cells at 20 uM pretreated with TGF-beta1 for 1 hr followed by compound addition and measured after 24 hrs by Western blot analysis; assay type: functional, cell-based
[9] = tested on: LX-2; experiment: Effect on alpha-SMA protein level in TGF-beta1-induced human LX2 cells at 20 uM pretreated with TGF-beta1 for 1 hr followed by compound addition and measured after 24 hrs by Western blot analysis; assay type: functional, cell-based
[10] = tested on: LX-2; experiment: […] of alpha-SMA mRNA expression in TGF-beta1-induced human LX2 cells at 20 uM pretreated with TGF-beta1 for 1 hr followed by compound addition and measured after 24 hrs by qRT-PCR analysis; assay type: functional, cell-based
[11] = tested on: Mus musculus; experiment: Antifibrotic activity against CCL4-induced C57BL/6J mouse hepatic fibrosis model assessed as reduction in CD69/CD4 in Th1 cell cells at 30 mg/kg, po measured for 3 weeks by flow cytometry analysis relative to control; assay type: functional; design: scale not given: the % may be the effect or the level left
[12] = Toxicity in CCL4-induced po dosed C57BL/6J mouse assessed as inflammatory cell infiltration in heart at 15 to 30 mg/kg, po by H and E staining based analysis; assay type: organism-based; settings: in vivo, dose 15-30 mg/kg
[13] = tested on: Mus musculus; experiment: Antifibrotic activity against CCL4-induced C57BL/6J mouse hepatic fibrosis model assessed as reduction in F4/80+CD11b+ in macrophage at 30 mg/kg, po measured for 3 weeks by flow cytometry analysis relative to control; assay type: functional; design: scale not given: the % may be the effect or the level left
[14] = tested on: Mus musculus; experiment: Antifibrotic activity against CCL4-induced C57BL/6J mouse hepatic fibrosis model assessed as reduction in CD69/CD8 in […] cell cells at 30 mg/kg, po measured for 3 weeks by flow cytometry analysis relative to control; assay type: functional; design: scale not given: the % may be the effect or the level left
[15] = Toxicity in CCL4-induced po dosed C57BL/6J mouse assessed as inflammatory cell infiltration in spleen at 15 to 30 mg/kg, po by H and E staining based analysis; assay type: organism-based; settings: in vivo, dose 15-30 mg/kg
[16] = tested on: Mus musculus; experiment: Antifibrotic activity against CCL4-induced C57BL/6J mouse hepatic fibrosis model assessed as reduction in CD11b/Gr-1 in MDSC cells at 30 mg/kg, po measured for 3 weeks by flow cytometry analysis relative to control; assay type: functional; design: scale not given: the % may be the effect or the level left
[17] = Toxicity in CCL4-induced po dosed C57BL/6J mouse assessed as inflammatory cell infiltration in lung at 15 to 30 mg/kg, po by H and E staining based analysis; assay type: organism-based; settings: in vivo, dose 15-30 mg/kg

SMILES	inhibition at 20 µM [3]	viability at 72 h, 20 µM [5]	other results
COc1ccc(/C=C/C(=O)Nc2cccc(C(=O)NC3CCCC3)c2)cc1OC	53.8%	44.3%	Activity [1]: Active; IC50 at 72 h [2]: 8.4 µM; Activity [4]: Active
COc1ccc(/C=C/C(=O)Nc2ccccc2C(=O)N2CCCCC2)cc1OC	13%	88.7%	–
COc1ccc(/C=C/C(=O)Nc2ccc(C(=O)N3CCCCC3)cc2)cc1OC	29.5%	74%	–
COc1cccc(/C=C/C(=O)Nc2ccc(C(=O)NC3CCCC3)cc2)c1OC	17.3%	77%	–
COc1ccc(/C=C/C(=O)Nc2ccc(C(=O)O)cc2)cc1OC	31%	81.5%	–
COc1ccc(/C=C/C(=O)Nc2ccc(C(=O)NC3CCCC3)cc2)cc1OC	48.3%	46%	Activity [1]: Active; IC50 at 72 h [2]: 13.3 µM; Activity [4]: Active
COc1ccc(/C=C/C(=O)Nc2ccc(C(=O)NC3CC3)cc2)cc1OC	24.5%	74.3%	–
COc1ccc(/C=C/C(=O)Nc2cccc(C(=O)N3CCCCC3)c2)cc1OC	17.7%	68.8%	–
COc1cccc(/C=C/C(=O)Nc2ccc(C(=O)NC3CCCC3)cc2)c1	19%	70.8%	–
O=C(/C=C/c1ccc2c(c1)OCCO2)Nc1ccc(C(=O)NC2CCCC2)cc1	18%	69.3%	–
COc1ccc(/C=C/C(=O)Nc2ccccc2C(=O)NC2CCC2)cc1OC	19%	71%	–
COc1ccc(CCC(=O)Nc2ccc(C(=O)NC3CCCC3)cc2)cc1OC	3%	71.7%	–
COc1ccc(/C=C/C(=O)Nc2ccc(C(=O)NC3CCCCC3)cc2)cc1OC	14%	81.3%	–
COc1ccccc1/C=C/C(=O)Nc1ccc(C(=O)NC2CCCC2)cc1	70.3%	70.8%	Activity [6]: Active; Activity [7]: Active; Activity [8]: inactive; Activity [9]: inactive
COc1ccc(/C=C/C(=O)Nc2ccc(C(=O)NC3CCCC3)nc2)cc1OC	41%	64.5%	Activity [10]: Active
COc1ccc(/C=C/C(=O)Nc2ccc(C(=O)NC3CCC3)cc2)cc1OC	27%	68.3%	–
COc1ccc(/C=C/C(=O)Nc2cccc(C(=O)O)c2)cc1OC	26%	79.3%	–
COc1ccc(CCC(=O)Nc2cccc(C(=O)NC3CCCC3)c2)cc1OC	13.8%	71.7%	–
COc1ccc(/C=C/C(=O)Nc2ccccc2C(=O)O)cc1OC [TRANILAST]	17.5%	80%	Activity [11]: 1.66%; Activity [12]: Non-Toxic; IC50 at 72 h [2]: 82.3 µM; Activity [13]: 5.09%; Activity [14]: 1.92%; Activity [15]: Non-Toxic; Activity [16]: 2.87%; Activity [17]: Non-Toxic
COc1ccc(OC)c(/C=C/C(=O)Nc2ccc(C(=O)NC3CCCC3)cc2)c1	26.3%	63%	–

SMILES	inhibition at 20 µM [3]	viability at 72 h, 20 µM [5]	other results
COc1ccc(/C=C/C(=O)Nc2ccccc2C(=O)NC2CC2)cc1OC	1.5%	71.5%	–
COc1ccc(/C=C/C(=O)Nc2ccc(C(=O)NC3CCCC3)cc2)cc1	32%	50.3%	–
COc1ccc(/C=C/C(=O)Nc2ccccc2C(=O)NC2CCCC2)cc1OC	27%	88%	–
CNC(=O)c1ccccc1NC(=O)/C=C/c1ccc(OC)c(OC)c1	13%	67%	–
CNC(=O)c1cccc(NC(=O)/C=C/c2ccc(OC)c(OC)c2)c1	28.5%	79.7%	–
COc1ccc(/C=C/C(=O)Nc2cccc(C(=O)NC3CCC3)c2)cc1OC	31.7%	60%	–
O=C(/C=C/c1ccc2c(c1)OCO2)Nc1ccc(C(=O)NC2CCCC2)cc1	22%	78%	–
COc1ccc(/C=C/C(=O)Nc2ccc(C(=O)NC3CCNC3)cc2)cc1OC (stereo not given)	17%	80.3%	–
COc1ccc(/C=C/C(=O)Nc2ccccc2C(=O)NC2CCCCC2)cc1OC	20%	45.3%	–
COc1cccc(/C=C/C(=O)Nc2cccc(C(=O)NC3CCCC3)c2)c1	25.3%	56%	–
CNC(=O)c1ccc(NC(=O)/C=C/c2ccc(OC)c(OC)c2)cc1	24%	79.5%	–
COc1ccc(/C=C/C(=O)Nc2ccc(C(=O)NC3CCCC3)cc2)cc1O	29.5%	66.3%	–
COc1ccc(/C=C/C(=O)Nc2ccc(C(=O)NC3CCNC3)nc2)cc1OC (stereo not given)	19.5%	76.5%	–
COc1ccc(/C=C/C(=O)Nc2ccc(C(=O)O)nc2)cc1OC	14%	98%	–
COc1ccccc1/C=C/C(=O)Nc1cccc(C(=O)NC2CCCC2)c1	17.3%	66%	–
COc1ccc(/C=C/C(=O)Nc2cccc(C(=O)NC3CCCCC3)c2)cc1OC	49.6%	39.8%	–
COc1ccc(/C=C/C(=O)Nc2cccc(C(=O)NC3CC3)c2)cc1OC	30%	65.3%	–
Cc1cc(C)cc(/C=C/C(=O)Nc2ccc(C(=O)NC3CCCC3)cc2)c1	3%	80.5%	–
COc1cc(/C=C/C(=O)Nc2ccc(C(=O)NC3CCCC3)cc2)cc(OC)c1	36.7%	69.7%	Activity [1]: Active; IC50 at 72 h [2]: 17.3 µM; Activity [4]: Active
